Assay results reported in ChEMBL document CHEMBL2203011, “Psammaplysin derivatives from the Balinese marine sponge Aplysinella strongylata” (J Nat Prod, 2012).
The source made the active and inactive calls. No cut-off for these calls is given here.

Tested on: Plasmodium falciparum
Assay: Antiplasmodial activity against chloroquine-sensitive Plasmodium falciparum 3D7 infected in erythrocytes assessed as growth inhibition at 10 uM incubated for 48 hrs by [3H]hypoxanthine incorporation assay
Format: functional, organism-based

| Structure (SMILES) | growth inhibition (GI) |
| --- | --- |
| CCC(C)CCCCCCCCCCCCCCC(=O)NCCc1cc(Br)c(OCCCNC(=O)C2=NO[C@@]3(CC(Br)=C(OC)C(Br)=CO3)[C@H]2O)c(Br)c1 (some centres undefined) | inactive |
| COC1=C(Br)C[C@]2(OC=C1Br)ON=C(C(=O)NCCCOc1c(Br)cc(CCNC(=O)CO)cc1Br)[C@@H]2O | inactive |
| COC1=C(Br)C[C@]2(OC=C1Br)ON=C(C(=O)NCCCOc1c(Br)cc(C=O)cc1Br)[C@@H]2O | inactive |
| COC1=C(Br)C[C@]2(OC=C1Br)ON=C(C(=O)NCCCOc1c(Br)cc(C(O)CNC=C3C(=O)C=CC3=O)cc1Br)[C@@H]2O (some centres undefined) | Active |
| COC1=C(Br)C[C@]2(OC=C1Br)ON=C(C(=O)NCCCOc1c(Br)cc(CCNC(=O)CCCCCCCCCCCCC(C)C)cc1Br)[C@@H]2O | inactive |
| COC1=C(Br)C[C@]2(OC=C1Br)ON=C(C(=O)NCCCOc1c(Br)cc(C3CNC(=O)O3)cc1Br)[C@@H]2O (some centres undefined) | inactive |
| CCCCCCCCCCCCCCCCCC(=O)NCC(O)c1cc(Br)c(OCCCNC(=O)C2=NO[C@@]3(CC(Br)=C(OC)C(Br)=CO3)[C@H]2O)c(Br)c1 (some centres undefined) | inactive |
| CCCCC/C=C\CCCCCCCCC(=O)NCCc1cc(Br)c(OCCCNC(=O)C2=NO[C@@]3(CC(Br)=C(OC)C(Br)=CO3)[C@H]2O)c(Br)c1 | inactive |

Tested on: Plasmodium falciparum
Assay: Antiplasmodial activity against chloroquine-sensitive Plasmodium falciparum 3D7 infected in erythrocytes assessed as growth inhibition incubated for 48 hrs by [3H]hypoxanthine incorporation assay
Format: functional, organism-based

| Structure (SMILES) | IC50 |
| --- | --- |
| COC1=C(Br)C[C@]2(OC=C1Br)ON=C(C(=O)NCCCOc1c(Br)cc(C(O)CNC=C3C(=O)C=CC3=O)cc1Br)[C@@H]2O (some centres undefined) | 6.4 µM |
